45 molecules from patent US11198695B2, “Fused ring derivative having MGAT-2 inhibitory activity” (Shionogi & Co., Ltd., priority 2017, dated 2021) can be followed below.

≈ marks a conversion by molar mass, not a printed value. Bounds are passed on as bounds.

One data set has as its target recombinant human MGAT2 (Homo sapiens (Human), UniProt Q3SYC2). The data set is described as follows: Measurement of human MGAT2 inhibitory activity. The conditions noted are these: read-out: IC50 (concentration exhibiting 50% enzyme inhibition), Table 53. The class given is biochemical. In short, it runs like this:
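RapidFire ESI-MS read-out of the diolein/diolein-d5 peak ratio gave % inhibition, with no-enzyme and full-enzyme wells as 100% and 0%. Reactions ran 1 h at room temperature at pH 7.4 (phosphate, 2 mmol/L DTT), using Flag-tagged human MGAT2 membranes from Sf9 cells and a substrate solution of 30 μmol/L 2-oleoylglycerol and 10 μmol/L oleoyl-CoA.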

Data set [1] is described as follows: Metabolism stability test. It is filed as in vitro ADME. The conditions noted are these: human liver microsomes, 30 minutes, 37° C., NADPH, 0.5 μmol/L of test compound. How it is done: Using commercially available pooled human hepatic microsomes, the compound of the present invention was reacted for a constant time, a remaining rate was calculated by comparing a reacted sample and an unreacted sample, thereby, a degree of metabolism of the compound of the present invention in liver was assessed.
A reaction was performed (oxidative reaction) at 37° C. for 0 minute or 30 minutes in the presence of 1 mmol/L NADPH in 0.2 mL of a buffer (50 mmol/L Tris-HCl pH 7.4, 150 mmol/L potassium chloride, 10 mmol/L magnesium chloride) containing 0.5 mg protein/mL of human liver microsomes. After the reaction, 50 μL of the reaction solution was added to 100 μL of a methanol/acetonitrile=1/1 (v/v) solution, mixed and centrifuged at 3000 rpm for 15 minutes. The compound of the present invention in the supernatant was quantified by LC/MS/MS, and a remaining amount of the compound of the present invention after the reaction was calculated, letting a compound amount at 0 minute reaction time to be 100%. (Result) Remaining rate was shown at 0.5 μmol/L of test compound.
(Microsomes from liver hold many membrane-bound enzymes, among them those of drug oxidation.)

Data set [2] is described as follows: Solubility test (1% DMSO addition, pH 6.8 artificial intestinal juice). It is filed as physicochemical. The conditions noted are these: pH 6.8 artificial intestinal juice with 1% DMSO, kinetic from dmso stock, 16 hours at 25° C. As to the method: The solubility of the compound of the present invention was determined under 1% DMSO addition conditions. 10 mmol/L solution of the compound was prepared with DMSO, and 6 μL of the solution of the compound of the present invention was added to 594 μL of pH 6.8 artificial intestinal juice (118 mL of 0.2 mol/L NaOH test solution and water were added to 250 mL of 0.2 mol/L potassium dihydrogen phosphate test solution to reach 1000 mL). The mixture was left standing for 16 hours at 25° C., and the mixture was vacuum-filtered. The filtrate was two-fold diluted with methanol/water=1/1 (V/V), and the compound concentration in the filtrate was measured with HPLC or LC/MS/MS by the absolute calibration method.

recombinant human MGAT2, sequence (Q3SYC2 whole entry): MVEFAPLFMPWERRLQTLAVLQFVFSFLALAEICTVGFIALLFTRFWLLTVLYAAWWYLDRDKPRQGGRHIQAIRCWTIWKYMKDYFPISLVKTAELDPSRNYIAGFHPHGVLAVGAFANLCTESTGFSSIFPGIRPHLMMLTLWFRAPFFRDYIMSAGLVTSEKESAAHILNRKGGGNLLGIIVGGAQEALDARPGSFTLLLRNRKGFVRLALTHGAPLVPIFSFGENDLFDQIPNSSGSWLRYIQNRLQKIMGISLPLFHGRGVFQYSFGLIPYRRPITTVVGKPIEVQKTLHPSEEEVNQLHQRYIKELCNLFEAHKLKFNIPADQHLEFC

On to `Cc1ccc(-n2nc3c(c2NC(=O)CS(C)(=N)=O)C(=O)N[C@@]2(CCc4cc(OCC(F)(F)F)ccc42)C3)nc1` (single isomer, unassigned) [II-276], for which, on recombinant human MGAT2, the IC50 is 2.2 nM. The “Remaining rate (%)” value in data set [1] was 98.2%. Further, the solubility at 16 h in data set [2] was greater than 50 µM.

In the case of `CS(=O)(=O)CC(=O)Nc1c2c(nn1CCC1CC1)C[C@]1(CCc3cc(OCC(F)(F)F)ccc31)NC2=O` [Compound I-8], in data set [1], the “Remaining rate (%)” value was 102%. The molecule also returned a solubility at 16 h in data set [2] greater than 50 µM. The corresponding values for `CS(=O)(=O)CC(=O)Nc1c2c(nn1-c1ccccn1)C[C@]1(CCc3cc(OCCCC(F)(F)F)ccc31)NC2=O` [Compound I-23] are 98.7% and 48.2 µM (≈ 27.8 µg/mL). The corresponding values for `CS(=O)(=O)CC(=O)Nc1c2c(nn1-c1ccc(C#N)cn1)C[C@]1(CCc3cc(OCC(F)(F)F)ccc31)NC2=O` [Compound I-190] are 96.6% and greater than 50 µM.

With `CS(=O)(=O)CC(=O)Nc1c2c(nn1CCCC(F)(F)F)C[C@@]1(CCc3cc(OCC(F)(F)F)ccc31)NC2=O` [Compound I-212], the “Remaining rate (%)” value in data set [1] is 62.6%. The same molecule returned a solubility at 16 h in data set [2] greater than 50 µM. The corresponding values for `Cc1ccc(-n2nc3c(c2NC(=O)CS(C)(=O)=O)C(=O)N[C@@]2(CCc4cc(OCC(F)(F)F)ccc42)C3)nc1` [Compound I-236] are 87.6% and greater than 50 µM. Turning to `Cc1ccc(-n2nc3c(c2NC(=O)CS(C)(=O)=O)C(=O)N[C@@]2(CCOc4cc(OCC(F)(F)F)ccc42)C3)nc1` [Compound I-275], the “Remaining rate (%)” value in data set [1] came to 91.8%. In addition, the solubility at 16 h in data set [2] was greater than 50 µM.

Consider `CS(=O)(=O)CC(=O)Nc1c2c(nn1CCCOC(F)(F)F)C[C@@]1(CCc3cc(OCC(F)(F)F)cc(F)c31)NC2=O` [II-93], for which the “Remaining rate (%)” value in data set [1] came to 103%. The same molecule displayed a solubility at 16 h in data set [2] greater than 50 µM. Take `Cc1ccc(-n2nc3c(c2NC(=O)CS(C)(=O)=O)C(=O)N[C@@]2(CCOc4cc(OCC(C)(F)F)ccc42)C3)nc1` [II-151]: the “Remaining rate (%)” value in data set [1] was found to be 82.6%. This molecule also showed a solubility at 16 h in data set [2] greater than 50 µM. On to `CS(=O)(=O)CC(=O)Nc1c2c(nn1-c1ccc(C(F)F)cc1)C[C@]1(CCc3cc(OCC(F)(F)F)ccc31)NC2=O` [II-174], for which, in data set [1], the “Remaining rate (%)” value amounted to 99.9%. Further, the solubility at 16 h in data set [2] came to 32.4 µM (≈ 19.4 µg/mL).

In the case of `CS(=O)(=O)CC(=O)Nc1c2c(nn1-c1ccc(F)c(F)c1)C[C@]1(CCOc3cc(CCC(F)(F)F)ccc31)NC2=O` [II-225], the “Remaining rate (%)” value in data set [1] is 104%. This molecule also yielded a solubility at 16 h in data set [2] of 45.1 µM (≈ 27 µg/mL).

As to `Cc1ccc(-n2nc3c(c2NC(=O)CC(N)=O)C(=O)N[C@@]2(CCOc4cc(OCC(F)(F)F)ccc42)C3)nc1` [II-269], the IC50 on recombinant human MGAT2 worked out at 11.7 nM. Still for that read-out and setting: the figure for `CNS(=O)(=O)CC(=O)Nc1c2c(nn1-c1ccc(C)cn1)C[C@]1(CCOc3cc(OCC(F)(F)F)ccc31)NC2=O` [II-271] is 1.34 nM; for `Cc1ccc(-n2nc3c(c2NC(=O)C2(S(C)(=O)=O)CC2)C(=O)N[C@@]2(CCOc4cc(OCC(F)(F)F)ccc42)C3)nc1` [II-272] it is 210 nM; for `N#Cc1ccc(-n2nc3c(c2C(=O)NS(=O)(=O)C2CC2)C(=O)N[C@]2(CCc4cc(OCC(F)(F)F)ccc42)C3)nc1` [II-273] it is 14 nM.

`Cc1ccc(-n2nc3c(c2C(=O)NS(=O)(=O)C2CC2)C(=O)N[C@@](c2ccc(OCC(F)(F)F)cc2F)(C(F)(F)F)C3)nc1` [II-274]: at recombinant human MGAT2, the IC50 stood at 6.67 nM. Still for that read-out and setting: the figure for `CS(=O)(=O)CC(=O)Nc1c2c(nn1CCCOC(F)(F)F)C[C@@]1(CCc3cc(OCCCC(F)(F)F)ccc31)NC2=O` [II-277] is 1 nM; for `Cc1cc(-n2nc3c(c2NC(=O)CS(C)(=O)=O)C(=O)N[C@@]2(CCc4cc(C(F)(F)F)ccc42)C3)nn1C` [II-278] it is 5.92 nM; for `CS(=O)(=O)CC(=O)Nc1c2c(nn1CCCOC(F)(F)F)C[C@@]1(CCOc3cc(C4CC4)ccc31)NC2=O` [II-279] it is 1.12 nM.

`CS(=O)(=O)CC(=O)Nc1c2c(nn1CCCOC(F)(F)F)C[C@@]1(CCOc3cc(CCC(F)(F)F)ccc31)NC2=O` [II-280]: the IC50 on recombinant human MGAT2 is less than 1 nM. The same measure, in the same setting: the figure for `Cc1cc(-n2nc3c(c2NC(=O)CS(C)(=O)=O)C(=O)N[C@@]2(CCc4cc(OCCCC(F)(F)F)ccc42)C3)no1` [II-282] is less than 1 nM; for `CS(=O)(=O)CC(=O)Nc1c2c(nn1CCCOC(F)(F)F)C[C@]1(CCc3cc(CCC(F)(F)F)ccc31)NC2=O` [II-283] it is less than 1 nM. With `CS(=O)(=O)CC(=O)Nc1c2c(nn1CCCOC(F)(F)F)C[C@@]1(CCc3cc(CCC(F)(F)F)ccc31)NC2=O` [II-284], the IC50 on recombinant human MGAT2 was less than 1 nM. For the molecule `CS(=O)(=O)CC(=O)Nc1c2c(nn1CCCOC(F)F)C[C@]1(CCc3cc(CCC(F)(F)F)ccc31)NC2=O` [II-285], the IC50 at recombinant human MGAT2 came to 1.04 nM.

In the case of `CS(=O)(=O)CC(=O)Nc1c2c(nn1CCCOC(F)F)C[C@@]1(CCc3cc(CCC(F)(F)F)ccc31)NC2=O` [II-286], the IC50 at recombinant human MGAT2 amounted to 1.15 nM. On the same count and under the same terms, the same measure for `CS(=O)(=O)CC(=O)Nc1c2c(nn1-c1ccc(C(F)F)cc1)C[C@]1(CCc3cc(N4CC(F)(F)C4)ccc31)NC2=O` [II-287]: 5.26 nM. The same measure, in the same setting: the figure for `CC(F)(F)COc1ccc2c(c1)CC[C@]21Cc2nn(-c3ccc(C(F)F)cc3)c(NC(=O)CS(C)(=O)=O)c2C(=O)N1` [II-288] is 3.31 nM; for `CCS(=O)(=O)CC(=O)Nc1c2c(nn1CCCOC(F)(F)F)C[C@@]1(CCOc3cc(OCC(F)(F)F)ccc31)NC2=O` [II-289] it is 1.06 nM.

Take `CS(=O)(=O)CC(=O)Nc1c2c(nn1CCCOC(F)F)C[C@]1(CCc3cc(OCC4CC(F)(F)C4)ccc31)NC2=O` [II-290]: on recombinant human MGAT2, the IC50 is less than 1 nM. For `CS(=O)(=O)CC(=O)Nc1c2c(nn1CCCOC(F)F)C[C@@]1(CCc3cc(OCC4CC(F)(F)C4)ccc31)NC2=O` [II-291], the IC50 at recombinant human MGAT2 is less than 1 nM. The same measure, in the same setting: the figure for `O=C1N[C@]2(CCOc3cc(OCC(F)(F)F)ccc32)Cc2nn(CCCOC(F)(F)F)c(NC(=O)C3CS(=O)(=O)C3)c21` [II-293] is 2.76 nM; for `CS(=O)(=O)CC(=O)Nc1c2c(nn1-c1ccc(C(F)(F)F)cn1)C[C@]1(CCOc3cc(OCC(F)(F)F)ccc31)NC2=O` [II-294] it is less than 1 nM; for `CS(=O)(=O)CC(=O)Nc1c2c(nn1-c1ccc(C3CC3)cn1)C[C@]1(CCOc3cc(OCC(F)(F)F)ccc31)NC2=O` [II-296] it is less than 1 nM.

In the case of `CS(=O)(=O)CC(=O)Nc1c2c(nn1-c1ccc(C(F)F)cn1)C[C@]1(CCc3cc(OCC(F)(F)F)ccc31)NC2=O` [II-297], on recombinant human MGAT2, the IC50 is less than 1 nM.

`CS(=O)(=O)CC(=O)Nc1c2c(nn1-c1ccc(C(F)F)cc1)C[C@]1(CCOc3cc(OCC(F)(F)F)ccc31)NC2=O` [II-298]: the IC50 on recombinant human MGAT2 was less than 1 nM. Same read-out and setting: the figure for `Cc1cc(-n2nc3c(c2NC(=O)CS(C)(=O)=O)C(=O)N[C@@]2(CCc4cc(CCC(F)(F)F)ccc42)C3)nn1C` [II-299] is 1.98 nM; for `Cc1cc(-n2nc3c(c2NC(=O)CS(C)(=O)=O)C(=O)N[C@](C)(c2ccc(CCC(F)(F)F)cc2F)C3)no1` [II-300] it is less than 1 nM; for `CS(=O)(=O)CC(=O)Nc1c2c(nn1-c1ccc(F)cc1)CC1(CN(c3ccc(C(F)(F)F)cc3)C1)NC2=O` [II-301] it is 15.9 nM.

`Cc1ccc(-n2nc3c(c2NC(=O)CS(C)(=O)=O)C(=O)N[C@@]2(CCc4cc(C5CC5)ccc42)C3)nn1` [II-302]: the IC50 on recombinant human MGAT2 amounted to 3.61 nM.

Consider `Cc1cc(-n2nc3c(c2NC(=O)CS(C)(=O)=O)C(=O)N[C@@]2(CCc4cc(C5CC5)ccc42)C3)nn1C` [II-303], for which, on recombinant human MGAT2, the IC50 is 4.42 nM. The same measure, in the same setting: the same measure for `Cc1ccc(-n2nc3c(c2NC(=O)CS(C)(=O)=O)C(=O)N[C@@]2(CCc4cc(CCC(F)(F)F)ccc42)C3)nn1` [II-304]: 1.39 nM. Still for that read-out and setting: the same measure for `Cc1cc(-n2nc3c(c2NC(=O)CS(C)(=O)=O)C(=O)N[C@](C)(c2ccc(OCCCC(F)(F)F)cc2F)C3)no1` [II-305]: 1 nM. Take `Cc1cc(-n2nc3c(c2NC(=O)CS(C)(=O)=O)C(=O)N[C@@]2(CCc4cc(Cl)ccc42)C3)nn1C` [II-306]: on recombinant human MGAT2, the IC50 is 11.3 nM. For `Cc1ccc(-n2nc3c(c2NC(=O)CS(C)(=O)=O)C(=O)N[C@@]2(CCc4cc(Cl)ccc42)C3)nn1` [II-307], the IC50 at recombinant human MGAT2 came out at 6.19 nM. The same measure, in the same setting: the figure for `Cc1ccc(-n2nc3c(c2NC(=O)CS(C)(=N)=O)C(=O)NC2(C3)CN(c3ccc(C(F)(F)F)cc3)C2)nc1` (stereo not drawn) [II-308] is 6.58 nM.

A word on the solubility: it is the concentration that dissolves in the medium under given conditions.
